Results from patent US20060079453A1, “Hla binding peptides and their uses” (priority 2002, published 2006).
Like-named read-outs stand apart in the source and are kept apart here. No end group written: not given here.

How the values were obtained:
Experiment in all cases: biochemical
Format in all cases: binding
HLA-DR DRB1*0701 (DR7) = HLA-DR DRB1*0701 (DR7) (Homo sapiens, UniProt P01903+P01911, A100R/A102G/A103Q/D57E/D86V/E43K/F76Y/K127E/L162R/M171V/P40G/Q125H/Q99D/R33Q/R42Y/R54Q/S133A/S66F/T210M/V115G/Y107V/Y59L/Y89S)
HLA-DR DRB1*1101 (DR11) = HLA-DR DRB1*1101 (DR11) (Homo sapiens, UniProt P01903+P01911, A100R/A169T/A87E/I96F/K41T/L162R/M171V/P40S/Q125H/Q178H/Q39Y/Q99D/R42S/S66Y/T262R/V115G/W38E)
HLA-DR DRB1*1101 (DR11), sequence (P01903 26-254 limits assumed, other chains not shown): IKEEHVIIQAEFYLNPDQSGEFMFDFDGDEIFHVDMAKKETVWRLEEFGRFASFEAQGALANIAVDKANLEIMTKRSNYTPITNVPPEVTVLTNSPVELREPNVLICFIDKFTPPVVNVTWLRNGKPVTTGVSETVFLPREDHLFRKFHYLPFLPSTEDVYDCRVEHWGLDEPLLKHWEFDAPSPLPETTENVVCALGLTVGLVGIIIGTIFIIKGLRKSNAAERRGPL

HLA-DR DRB1*1501 (DR15) = HLA-DR DRB1*1501 (DR15) (Homo sapiens, UniProt P01903+P01911)
HLA-DR DRB4*0101 (DR53) = HLA-DR DRB4*0101 (DR53) (Homo sapiens, UniProt P01903+P13762, G164S)
HLA-DR DRB1*0401 (DR4) = HLA-DR DRB1*0401 (DR4) (Homo sapiens, UniProt P01903+P01911, A100K/A169T/F76Y/I96L/K127E/L162R/M171V/N62H/P40V/Q125Y/R42H/S133A/S149N/S66Y/V115G/V209L/W38E)
HLA-DR DRB5*0101 (DR51) = HLA-DR DRB5*0101 (DR51) (Homo sapiens, UniProt P01903+Q30154)
HLA-DR DRB1*0301 (DR3) = HLA-DR DRB1*0301 (DR3) (Homo sapiens, UniProt P01903+P01911, A100K/A102G/A103R/A169T/F55Y/I96L/K41T/L162R/M171V/P40S/Q125H/Q178H/Q39Y/R42S/S66N/T106N/T262R/W38E/Y61H)
HLA-DR DRB1*0301 (DR3), sequence (P01903 26-254 limits assumed, other chains not shown): as above

HLA-DR DRB1*0101 (DR1) = HLA-DR DRB1*0101 (DR1) (Homo sapiens, UniProt P01903+P01911, A100R/D57E/F55L/F60I/F76Y/I96L/L162R/M171V/P40L/Q125E/R42F/V115G/Y59C)
HLA-DR DRB1*1302 (DR13) = HLA-DR DRB1*1302 (DR13) (Homo sapiens, UniProt P01903+P01911, A100E/A169T/K41T/L162R/M171V/P40S/Q125H/Q178H/Q39Y/Q99D/R42S/S66N/T262R/V115G/W38E/Y61H)
HLA-DR DRB1*1302 (DR13), sequence (P01903 26-254 limits assumed, other chains not shown): as above

CC[C@H](C)[C@H](NC(=O)[C@H](C)NC(=O)[C@H](CCC(N)=O)NC(=O)[C@H](CCCNC(=N)N)NC(=O)[C@H](CC(C)C)NC(=O)[C@H](C)NC(=O)[C@@H](NC(=O)[C@H](Cc1c[nH]cn1)NC(=O)[C@H](Cc1c[nH]cn1)NC(=O)[C@@H]1CCCN1)[C@@H](C)O)C(=O)N[C@@H](CC(C)C)C(=O)N[C@@H](CO)C(=O)N[C@@H](Cc1c[nH]c2ccccc12)C(=O)NCC(=O)N[C@@H](CCC(=O)O)C(=O)N[C@@H](CC(C)C)C(=O)N[C@@H](CCSC)C(=O)N[C@H](C(=O)N[C@@H](CC(C)C)C(=O)N[C@@H](C)C(=O)O)[C@@H](C)O
IC50 (HLA-DR DRB1*0701 (DR7)): 14.4 µM
IC50 (HLA-DR DRB1*1101 (DR11)): 3.12 µM
IC50 (HLA-DR DRB1*1501 (DR15)): 0.0053 µM
IC50 (HLA-DR DRB4*0101 (DR53)): 0.048 µM

(16A)RQTTLKAAA
IC50 (HLA-DR DRB1*0401 (DR4); read-out: DRB1 *0401): 0.0013 µM
IC50 (HLA-DR DRB1*1101 (DR11); read-out: DRB1 *1101): 0.077 µM
IC50 (HLA-DR DRB5*0101 (DR51); read-out: DRB5 *0101): 4 µM

AAAKAAAAAAYAA
IC50 (HLA-DR DRB1*0301 (DR3)): > 900 µM
IC50 (HLA-DR DRB1*0401 (DR4); DRB1 *0401): 0.229 µM

AALAAAAAAKAAA
IC50 (HLA-DR DRB1*0101 (DR1); read-out: DRB1 *0101): 0.0019 µM
IC50 (HLA-DR DRB1*0401 (DR4); read-out: DRB1 *0401): 0.012 µM
IC50 (HLA-DR DRB1*1101 (DR11); read-out: DRB1 *1101): 2.22 µM
IC50 (HLA-DR DRB5*0101 (DR51); read-out: DRB5 *0101): 0.067 µM

ALLKNYGLLYCFRIW
IC50 (HLA-DR DRB1*1101 (DR11); read-out: DRB1 *1101): > 15.4 µM
IC50 (HLA-DR DRB1*1302 (DR13); read-out: DRBI *1302): 0.01 µM
IC50 (HLA-DR DRB1*1501 (DR15); read-out: DRBI *1501): 0.017 µM

ALVRQGLAKVA
IC50 (HLA-DR DRB1*0401 (DR4); DRB1 *0401): 0.19 µM
IC50 (HLA-DR DRB1*1101 (DR11); DRB1 *1101): ≥ 200 µM
IC50 (HLA-DR DRB5*0101 (DR51); DRB5 *0101): > 10 µM

Ac-ASQKRPSQRHGSKYLATAST
IC50 (HLA-DR DRB1*0301 (DR3)): > 900 µM

Ac-NPTKHKWEAAHVAEQLAA
IC50 (HLA-DR DRB1*1101 (DR11); DRB1 *1101): > 33.3 µM
IC50 (HLA-DR DRB1*1302 (DR13); DRBI *1302): > 10 µM
IC50 (HLA-DR DRB1*1501 (DR15); DRBI *1501): 200 µM

CIVYRDCIAYAACHK
IC50 (HLA-DR DRB1*0401 (DR4); read-out: DRB1 *0401): 0.928 µM
IC50 (HLA-DR DRB1*0701 (DR7); read-out: DRB1 *0701): > 14.6 µM
IC50 (HLA-DR DRB1*1101 (DR11); read-out: DRB1 *1101): 35.6 µM
IC50 (HLA-DR DRB5*0101 (DR51); read-out: DRB5 *0101): 1.91 µM

DFVFADLRIVYRDGN
IC50 (HLA-DR DRB1*1101 (DR11); read-out: DRB1 *1101): 6.96 µM
IC50 (HLA-DR DRB4*0101 (DR53); read-out: DRB4 *0101): 6.71 µM
IC50 (HLA-DR DRB5*0101 (DR51); read-out: DRB5 *0101): 8.43 µM

DPNANPNVDPNANPNVNANPNANPNANP(X4)QKWAAVVVPS
IC50 (HLA-DR DRB1*1101 (DR11); read-out: DRB1 *1101): > 12.5 µM
IC50 (HLA-DR DRB1*1501 (DR15); read-out: DRBI *1501): > 7.58 µM
IC50 (HLA-DR DRB4*0101 (DR53); read-out: DRB4 *0101): > 72.5 µM
IC50 (HLA-DR DRB5*0101 (DR51); read-out: DRB5 *0101): > 2.9 µM

DRTLMSAMTNLAALE
IC50 (HLA-DR DRB1*0101 (DR1); read-out: DRB1 *0101): 0.097 µM
IC50 (HLA-DR DRB1*0301 (DR3); read-out: DRB1 *0301): 64.3 µM
IC50 (HLA-DR DRB1*0401 (DR4); read-out: DRB1 *0401): 0.013 µM
IC50 (HLA-DR DRB1*0701 (DR7); read-out: DRB1 *0701): 0.383 µM

DRTLMSAMTNLAALF
IC50 (HLA-DR DRB1*1101 (DR11); read-out: DRB1 *1101): 2.37 µM
IC50 (HLA-DR DRB4*0101 (DR53); read-out: DRB4 *0101): 0.057 µM
IC50 (HLA-DR DRB5*0101 (DR51); read-out: DRB5 *0101): 26.1 µM

EEDIEIIFIQEEEY
IC50 (HLA-DR DRB1*1101 (DR11); read-out: DRB1 *1101): > 20.6 µM
IC50 (HLA-DR DRB5*0101 (DR51); read-out: DRB5 *0101): 46.1 µM

EEYVRFDSDVGE
IC50 (HLA-DR DRB1*0101 (DR1); DRB1 *0101): ≥ 50 µM
IC50 (HLA-DR DRB1*0401 (DR4); DRB1 *0401): 0.216 µM
IC50 (HLA-DR DRB1*1101 (DR11); DRB1 *1101): ≥ 200 µM
IC50 (HLA-DR DRB5*0101 (DR51); DRB5 *0101): ≥ 200 µM

EFAFKDLFVVYRDSI
IC50 (HLA-DR DRB1*1101 (DR11); read-out: DRB1 *1101): 9.5 µM
IC50 (HLA-DR DRB1*1302 (DR13); read-out: DRBI *1302): 10 µM
IC50 (HLA-DR DRB1*1501 (DR15); read-out: DRBI *1501): 5.36 µM
IC50 (HLA-DR DRB5*0101 (DR51); read-out: DRB5 *0101): 6 µM
